How the values were obtained:
Assay type in all cases: binding, BALB/c mice
H6 1.5 = experiment: ELISA inhibition by singly modified Cs-derivatives, McAb H6 1.5; conditions: group III; D-Lys^8 -Cs-BSA coating
Method: (§1) A second ELISA Procedure used conjugates of D-Lys^8 -Cs-BSA and Thr^2 -Cs-BSA for coating (Queeniaux et al., 1987b). An indirect detection system consisting of rabbit anti-mouse Ig followed by alkaline phosphates-conjugated goat anti-rabbit IgG was performed as previously described (Queenlaux et al., 1987b).
(§2) The binding of the 22 McAbs to these two Cs-BSA conjugates was also found to correlate well with their fine specificity patterns, as characterized with a set of 28-36 Cs derivatives. Typical ELISA curves showing McAb binding either to D-Lys^8 -Cs-BSA (panel A) or to Thr^2 -Ca-BSA (panel B) and inhibited by Cs or Cs derivatives are shown in FIGS. 8A-8B, D-Lys^8 -Cs-BSA was subsequently used for coating in the inhibition experiments, except for those McAbs binding selectively to Thr^2 -Cs-BSA (see Table 4 and FIGS. 7A-7C). An example of the binding of 26 Cs derivatives by McAbs belonging to each of the five specificity groups mentioned above is reported in Table 5. The results are expressed as the difference of IC50 (in log10) between the Cs derivatives and Cs. All Cs-derivatives used in this study were selected for having a conserved peptide ring conformation compared with CsA (as determined in NMR or X-ray diffraction).

C4 2.2 = experiment: ELISA inhibition by singly modified Cs-derivatives, McAb C4 2.2; conditions: group V; McAb binds selectively to Thr^2 -Cs-BSA coating
Method: as §1, §2

G7 1.1 = experiment: ELISA inhibition by singly modified Cs-derivatives, McAb G7 1.1; conditions: group I; McAb binds selectively to Thr^2 -Cs-BSA coating
Method: as §1, §2

H4 1.3 = experiment: ELISA inhibition by singly modified Cs-derivatives, McAb H4 1.3; conditions: group II; D-Lys^8 -Cs-BSA coating
Method: as §1, §2

B11 1.4 = experiment: ELISA inhibition by singly modified Cs-derivatives, McAb B11 1.4; conditions: group IV; D-Lys^8 -Cs-BSA coating
Method: as §1, §2

| Compound | log10 difference in the concentrations of Cs-derivatives and unmodified Cs required to achieve 50% inhibition in ELISA, McAb H6 1.5 (H6 1.5) [log10] | log10 difference in the concentrations of Cs-derivatives and unmodified Cs required to achieve 50% inhibition in ELISA, McAb C4 2.2 (C4 2.2) [log10] | log10 difference in the concentrations of Cs-derivatives and unmodified Cs required to achieve 50% inhibition in ELISA, McAb G7 1.1 (G7 1.1) [log10] | log10 difference in the concentrations of Cs-derivatives and unmodified Cs required to achieve 50% inhibition in ELISA, McAb H4 1.3 (H4 1.3) [log10] | log10 difference in the concentrations of Cs-derivatives and unmodified Cs required to achieve 50% inhibition in ELISA, McAb B11 1.4 (B11 1.4) [log10] |
| --- | --- | --- | --- | --- | --- |
| CC[C@@H]1NC(=O)[C@H]([C@H](O)[C@H](C)C/C=C/CO)N(C)C(=O)[C@H](C(C)C)N(C)C(=O)[C@H](CC(C)C)N(C)C(=O)[C@H](CC(C)C)N(C)C(=O)[C@@H](C)NC(=O)[C@H](C)NC(=O)[C@H](CC(C)C)N(C)C(=O)[C@H](C(C)C)NC(=O)[C@H](CC(C)C)N(C)C(=O)CN(C)C1=O [MeBint^1 8'-hydroxy] | < 0.0 | 0.0 | 0.0 | < 0.0 | < 0.0 |
| C/C=C/C[C@@H](C)[C@@H](O)[C@H]1C(=O)N[C@@H](CC)C(=O)N(C)CC(=O)N(C)[C@@H](CC(C)C)C(=O)N[C@@H](C(C)C)C(=O)N(C)[C@@H](CC(C)C)C(=O)N[C@@H](CC)C(=O)N[C@H](C)C(=O)N(C)[C@@H](CC(C)C)C(=O)N(C)[C@@H](CC(C)C)C(=O)N(C)[C@@H](C(C)C)C(=O)N1C [Ala^7 Abu] | 0.0 | < 0.0 | < 0.0 | 0.0 | 0.0 |
| C/C=C/C[C@@H](C)[C@@H](O)[C@H]1C(=O)N[C@@H](CC)C(=O)N(C)C(COC(C)=O)C(=O)N(C)[C@@H](CC(C)C)C(=O)N[C@@H](C(C)C)C(=O)N(C)[C@@H](CC(C)C)C(=O)N[C@@H](C)C(=O)N[C@H](C)C(=O)N(C)[C@@H](CC(C)C)C(=O)N(C)[C@@H](CC(C)C)C(=O)N(C)[C@@H](C(C)C)C(=O)N1C (stereo partly shown) [Sar^3 O-Acetyl-MeSer] | 2.2 | 1.5 | 1.2 | 2.1 | 0.4 |
| C/C=C/C[C@@H](C)[C@@H](O)[C@H]1C(=O)N[C@@H](CC)C(=O)N(C)CC(=O)N(C)[C@@H](CC(C)C)C(=O)N[C@@H](C(C)C)C(=O)N(C)[C@@H](CC(C)C)C(=O)N[C@@H](C)C(=O)N[C@H](C)C(=O)N(C)[C@@H](Cc2ccccc2)C(=O)N(C)[C@@H](CC(C)C)C(=O)N(C)[C@@H](C(C)C)C(=O)N1C [MeLeu^9 MePhe] | 0.1 | 1.8 | 0.3 | 0.0 | 1.2 |
| C/C=C/C[C@@H](C)[C@@H](O)[C@H]1C(=O)N[C@@H](CC)C(=O)N(C)CC(=O)N(C)[C@@H](CC(C)C)C(=O)N[C@@H](C(C)C)C(=O)N(C)[C@@H](CC(C)C)C(=O)N[C@@H](C)C(=O)N[C@H](C)C(=O)N(C)[C@@H](CC(C)C)C(=O)N(C)[C@@H](Cc2ccccc2)C(=O)N(C)[C@@H](C(C)C)C(=O)N1C [MeAla^10 MePhe] | 0.2 | 1.3 | < 0.0 | 0.5 | 1.6 |
